Data as given in patent US20260262643A1, “HERBICIDAL BENZOXAZINES” (FMC CORPORATION, priority 2022, published 2026).

Legend:
[1] = tested on: ragweed; test: Test C postemergence; type: in vivo, Ambrosia artemisiifolia; details: 10 days
Procedure, shortened: (§1)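 Greenhouse herbicide screen, 10-day duration. Test chemicals in solvent/surfactant blend were sprayed onto soil at sowing (pre) or onto 2–10 cm seedlings at one to two leaves (post); injury scored visually against controls, 0 no effect to 100 complete control.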

[2] = tested on: kochia; test: Test C postemergence; type: in vivo, Bassia scoparia; details: 10 days
Procedure, shortened: as §1

[3] = tested on: kochia; test: Test C preemergence; type: in vivo, Bassia scoparia; details: 0 to 100 scale (0 no effect, 100 complete control); for Plant response rating, Kochia: Preemergence, 500 g ai/ha, visual rating after 10 days; for Kochia plant response rating: Test C, preemergence, 125 g ai/ha
Procedure, shortened: as §1

[4] = tested on: sedge, umbrella; test: Test D flooded paddy test; type: in vivo, Cyperus difformis; details: 250 g ai/ha, applied to paddy water, visual rating after 13 to 14 days, scale 0 to 100 (0 no effect, 100 complete control)
Procedure, shortened: (§2)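 At the 2-leaf stage, floodwater 3 cm deep received the test compound; that depth persisted throughout. Plants scored visually 13 to 14 days on, 0 (no effect) to 100 (complete control), dash indicating no result.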

[5] = tested on: ryegrass, Italian; test: Test C postemergence; type: in vivo, Lolium multiflorum; details: 10 days
Procedure, shortened: as §1

[6] = tested on: wheat; test: Test C preemergence; type: in vivo, Triticum aestivum; details: 0 to 100 scale (0 no effect, 100 complete control); for Plant response rating, Wheat: Preemergence, 500 g ai/ha, visual rating after 10 days; for Wheat plant response rating: Test C, preemergence, 125 g ai/ha
Procedure, shortened: as §1

[7] = tested on: corn; test: Test C postemergence; type: in vivo, Zea mays; details: 10 days
Procedure, shortened: as §1

[8] = tested on: galium; test: Test C postemergence; type: in vivo, Galium aparine; details: 10 days
Procedure, shortened: as §1

[9] = tested on: pigweed, palmer; test: Test C preemergence; type: in vivo, Amaranthus palmeri; details: 0 to 100 scale (0 no effect, 100 complete control); for Plant response rating, Pigweed, Palmer: Preemergence, 500 g ai/ha, visual rating after 10 days; for Pigweed, Palmer plant response rating: Test C, preemergence, 125 g ai/ha
Procedure, shortened: as §1

[10] = tested on: blackgrass; test: Test C postemergence; type: in vivo, Alopecurus myosuroides; details: 10 days
Procedure, shortened: as §1

[11] = tested on: soybean; test: Test C preemergence; type: in vivo, Glycine max; details: 0 to 100 scale (0 no effect, 100 complete control); for Plant response rating, Soybean: Preemergence, 500 g ai/ha, visual rating after 10 days; for Soybean plant response rating: Test C, preemergence, 125 g ai/ha
Procedure, shortened: as §1

[12] = tested on: barnyardgrass; test: Test D flooded paddy test; type: in vivo, Echinochloa crus-galli; details: 250 g ai/ha, applied to paddy water, visual rating after 13 to 14 days, scale 0 to 100 (0 no effect, 100 complete control)
Procedure, shortened: as §2

[13] = tested on: corn; test: Test C preemergence; type: in vivo, Zea mays; details: 0 to 100 scale (0 no effect, 100 complete control); for Plant response rating, Corn: Preemergence, 500 g ai/ha, visual rating after 10 days; for Corn plant response rating: Test C, preemergence, 125 g ai/ha
Procedure, shortened: as §1

[14] = tested on: pigweed, palmer; test: Test C postemergence; type: in vivo, Amaranthus palmeri; details: 10 days
Procedure, shortened: as §1

[15] = tested on: blackgrass; test: Test C preemergence; type: in vivo, Alopecurus myosuroides; details: 0 to 100 scale (0 no effect, 100 complete control); for Plant response rating, Blackgrass: Preemergence, 500 g ai/ha, visual rating after 10 days; for Blackgrass plant response rating: Test C, preemergence, 125 g ai/ha
Procedure, shortened: as §1

[16] = tested on: ducksalad; test: Test D flooded paddy test; type: in vivo, Heteranthera limosa; details: 250 g ai/ha, applied to paddy water, visual rating after 13 to 14 days, scale 0 to 100 (0 no effect, 100 complete control)
Procedure, shortened: as §2

[17] = tested on: barnyardgrass; test: Test C preemergence; type: in vivo, Echinochloa crusgalli; details: 0 to 100 scale (0 no effect, 100 complete control); for Barnyardgrass plant response rating: 125 g ai/ha, preemergence; for Plant response rating, Barnyardgrass: Preemergence, 500 g ai/ha, visual rating after 10 days
Procedure, shortened: as §1

[18] = tested on: wheat; test: Test C postemergence; type: in vivo, Triticum aestivum; details: 10 days
Procedure, shortened: as §1

[19] = tested on: barnyardgrass; test: Test C postemergence; type: in vivo, Echinochloa crusgalli; details: 10 days
Procedure, shortened: as §1

[20] = tested on: horseweed; test: Test C postemergence; type: in vivo, Erigeron canadensis; details: 10 days
Procedure, shortened: as §1

[21] = tested on: green foxtail; test: Test C postemergence; type: in vivo, Setaria viridis; details: 10 days
Procedure, shortened: as §1

[22] = tested on: ryegrass, Italian; test: Test C preemergence; type: in vivo, Lolium multiflorum; details: 0 to 100 scale (0 no effect, 100 complete control); for Plant response rating, Ryegrass, Italian: Preemergence, 500 g ai/ha, visual rating after 10 days; for Ryegrass, Italian plant response rating: Test C, preemergence, 125 g ai/ha
Procedure, shortened: as §1

[23] = tested on: oat, wild; test: Test C preemergence; type: in vivo, Avena fatua; details: 0 to 100 scale (0 no effect, 100 complete control); for Plant response rating, Oat, Wild: Preemergence, 500 g ai/ha, visual rating after 10 days; for Oat, Wild plant response rating: Test C, preemergence, 125 g ai/ha
Procedure, shortened: as §1

[24] = tested on: soybean; test: Test C postemergence; type: in vivo, Glycine max; details: 10 days
Procedure, shortened: as §1

[25] = tested on: rice; test: Test D flooded paddy test; type: in vivo, Oryza sativa; details: 250 g ai/ha, applied to paddy water, visual rating after 13 to 14 days, scale 0 to 100 (0 no effect, 100 complete control)
Procedure, shortened: as §2

[26] = tested on: oat, wild; test: Test C postemergence; type: in vivo, Avena fatua; details: 10 days
Procedure, shortened: as §1

[27] = tested on: green foxtail; test: Test C preemergence; type: in vivo, Setaria viridis; details: 0 to 100 scale (0 no effect, 100 complete control); for Plant response rating, Foxtail, Green: Preemergence, 500 g ai/ha, visual rating after 10 days; for Foxtail, Green plant response rating: Test C, preemergence, 125 g ai/ha
Procedure, shortened: as §1

[28] = tested on: ragweed; test: Test C preemergence; type: in vivo, Ambrosia artemisiifolia; details: 0 to 100 scale (0 no effect, 100 complete control); for Plant response rating, Ragweed: Preemergence, 500 g ai/ha, visual rating after 10 days; for Ragweed plant response rating: Test C, preemergence, 125 g ai/ha
Procedure, shortened: as §1

[29] = 125 g ai/ha, postemergence, 0 to 100 scale, 0 no effect, 100 complete control
[30] = Postemergence, 500 g ai/ha, visual 0 to 100 scale (0 no effect, 100 complete control)

CC(C)c1ncn(-c2cc3c(c(C(=O)N4C[C@H](C)Oc5c(Cl)cccc54)c2)OCCCO3)n1 [Compound 158]
Plant response rating, Ragweed [1, 29]: 90 | Plant response rating, Ragweed [1, 30]: 80 | Plant response rating, Kochia [2, 29]: 70 | Plant response rating, Kochia [2, 30]: 90 | Plant response rating, Kochia [3]: 90 | Kochia plant response rating [3]: 70 | Plant response rating, Sedge, Umbrella (Flood) [4]: 75 | Plant response rating, Ryegrass, Italian [5, 29]: 40 | Plant response rating, Ryegrass, Italian [5, 30]: 70 | Plant response rating, Wheat [6]: 40 | Wheat plant response rating [6]: 10 | Plant response rating, Corn [7, 29]: 50 | Plant response rating, Corn [7, 30]: 60 | Plant response rating, Galium [8, 29]: 100 | Plant response rating, Galium [8, 30]: 90 | Plant response rating, Pigweed, Palmer [9]: 100 | Pigweed, Palmer plant response rating [9]: 100 | Plant response rating, Blackgrass [10, 29]: 40 | Plant response rating, Blackgrass [10, 30]: 90 | Plant response rating, Soybean [11]: 80 | Soybean plant response rating [11]: 50 | Plant response rating, Barnyardgrass (Flood) [12]: 25 | Plant response rating, Corn [13]: 20 | Corn plant response rating [13]: 0 | Plant response rating, Pigweed, Palmer [14, 29]: 80 | Plant response rating, Pigweed, Palmer [14, 30]: 100 | Plant response rating, Blackgrass [15]: 60 | Blackgrass plant response rating [15]: 40 | Plant response rating, Ducksalad (Flood) [16]: 65 | Barnyardgrass plant response rating [17]: 60 | Plant response rating, Barnyardgrass [17]: 90 | Plant response rating, Wheat [18, 29]: 30 | Plant response rating, Wheat [18, 30]: 70 | Plant response rating, Barnyardgrass [19, 29]: 40 | Plant response rating, Barnyardgrass [19, 30]: 70 | Plant response rating, Horseweed [20, 29]: 20 | Plant response rating, Horseweed [20, 30]: 20 | Plant response rating, Foxtail, Green [21, 29]: 60 | Plant response rating, Foxtail, Green [21, 30]: 90 | Plant response rating, Ryegrass, Italian [22]: 80 | Ryegrass, Italian plant response rating [22]: 80 | Plant response rating, Oat, Wild [23]: 80 | Oat, Wild plant response rating [23]: 20 | Plant response rating, Soybean [24, 29]: 100 | Plant response rating, Soybean [24, 30]: 100 | Plant response rating, Rice (Flood) [25]: 0 | Plant response rating, Oat, Wild [26, 29]: 30 | Plant response rating, Oat, Wild [26, 30]: 60 | Plant response rating, Foxtail, Green [27]: 100 | Foxtail, Green plant response rating [27]: 100 | Plant response rating, Ragweed [28]: 90 | Ragweed plant response rating [28]: 80

Cc1cc(-n2cnc(C(C)C)n2)cc(C(=O)N2C[C@H](C)Oc3c(Cl)cccc32)c1F [Compound 223]
Plant response rating, Ragweed [1, 29]: 0 | Plant response rating, Ragweed [1, 30]: 10 | Plant response rating, Kochia [2, 29]: 90 | Plant response rating, Kochia [2, 30]: 90 | Plant response rating, Kochia [3]: 80 | Kochia plant response rating [3]: 60 | Plant response rating, Sedge, Umbrella (Flood) [4]: 95 | Plant response rating, Ryegrass, Italian [5, 29]: 50 | Plant response rating, Ryegrass, Italian [5, 30]: 90 | Plant response rating, Wheat [6]: 90 | Wheat plant response rating [6]: 20 | Plant response rating, Corn [7, 29]: 20 | Plant response rating, Corn [7, 30]: 80 | Plant response rating, Galium [8, 29]: 100 | Plant response rating, Pigweed, Palmer [9]: 100 | Pigweed, Palmer plant response rating [9]: 100 | Plant response rating, Blackgrass [10, 29]: 30 | Plant response rating, Blackgrass [10, 30]: 70 | Plant response rating, Soybean [11]: 70 | Soybean plant response rating [11]: 10 | Plant response rating, Barnyardgrass (Flood) [12]: 10 | Plant response rating, Corn [13]: 40 | Corn plant response rating [13]: 0 | Plant response rating, Pigweed, Palmer [14, 29]: 80 | Plant response rating, Pigweed, Palmer [14, 30]: 90 | Plant response rating, Blackgrass [15]: 90 | Blackgrass plant response rating [15]: 40 | Plant response rating, Ducksalad (Flood) [16]: 80 | Plant response rating, Barnyardgrass [17]: 100 | Barnyardgrass plant response rating ([17]; Test C): 90 | Plant response rating, Wheat [18, 29]: 10 | Plant response rating, Wheat [18, 30]: 30 | Plant response rating, Barnyardgrass [19, 29]: 20 | Plant response rating, Barnyardgrass [19, 30]: 40 | Plant response rating, Horseweed [20, 29]: 20 | Plant response rating, Horseweed [20, 30]: 30 | Plant response rating, Foxtail, Green [21, 29]: 30 | Plant response rating, Foxtail, Green [21, 30]: 60 | Plant response rating, Ryegrass, Italian [22]: 90 | Ryegrass, Italian plant response rating [22]: 80 | Plant response rating, Oat, Wild [23]: 70 | Oat, Wild plant response rating [23]: 50 | Plant response rating, Soybean [24, 29]: 100 | Plant response rating, Soybean [24, 30]: 100 | Plant response rating, Rice (Flood) [25]: 10 | Plant response rating, Oat, Wild [26, 29]: 10 | Plant response rating, Oat, Wild [26, 30]: 30 | Plant response rating, Foxtail, Green [27]: 100 | Foxtail, Green plant response rating [27]: 100 | Plant response rating, Ragweed [28]: 40 | Ragweed plant response rating [28]: 50
